In ChEMBL document CHEMBL1151749, “Discovery of quinazolines as histamine H4 receptor inverse agonists using a scaffold hopping approach” (J Med Chem, 2008):

Each compound was assayed against T1, Histamine H4 receptor (Homo sapiens, UniProt Q9H3N8) (assay: Displacement of [3H]histamine from human histamine H4 receptor expressed in HEK cells).
Type: cell-based, HEK293

Ki [nM]	Compound
692	CNc1nc(N2CCN(C)CC2)nc2cccc(C)c12
8510	CN1CCN(c2nc(Nc3ccccc3)c3ccccc3n2)CC1
955	CCOC(=O)CNc1nc(N2CCN(C)CC2)nc2ccc(Cl)cc12
35.5	CN1CCN(c2nc(NCc3ccsc3)c3cc(Cl)ccc3n2)CC1
562	CN1CCN(c2nc(NCc3ccc(N)cc3)c3cc(Cl)ccc3n2)CC1
70.8	CNc1nc(N2CCN(C)CC2)nc2ccc(Cl)cc12
240	CN1CCN(c2nc(NCCc3ccccc3)c3cc(Cl)ccc3n2)CC1
> 1000	CNc1nc(N2CCC3(CCN(C)CC3)CC2)nc2ccc(Cl)cc12
105	CN1CCN(c2nc(NCc3nccs3)c3cc(Cl)ccc3n2)CC1
> 1000	CNc1nc(NCC2CCN(C)CC2)nc2ccc(Cl)cc12
26.9	CN1CCN(c2nc(NCc3ccoc3)c3cc(Cl)ccc3n2)CC1
> 1000	CNc1nc(N2CC[C@H](N)C2)nc2ccc(Cl)cc12
89.1	CN1CCN(c2nc(NCc3ccco3)c3cc(Cl)ccc3n2)CC1
589	CN1CCN(c2nc(NCC3CCCCC3)c3cc(Cl)ccc3n2)CC1
4070	CN1CCN(c2nc(OCc3ccccc3)c3ccccc3n2)CC1
186	Cc1cc(Cl)cc2c(NCc3ccco3)nc(N3CCN(C)CC3)nc12
> 1000	CNc1nc(NCCC2CCN(C)C2)nc2ccc(Cl)cc12 (configuration not stated)
60.3	CN1CCN(c2nc(NCCc3cccs3)c3cc(Cl)ccc3n2)CC1

More lines, now with the values behind:

Compound	Ki [nM]
CNc1nc(N2CCN3CCC[C@H]3C2)nc2ccc(Cl)cc12	155
CN1CCN(c2nc(NCc3ccccc3)c3cc(Cl)ccc3n2)CC1	257
CN1CCN(c2nc(Oc3ccccc3)c3ccccc3n2)CC1	2820
Cc1ccsc1CNc1nc(N2CCN(C)CC2)nc2ccc(Cl)cc12	33.9
Cc1noc(CNc2nc(N3CCN(C)CC3)nc3ccc(Cl)cc23)n1	372
CNc1nc(N2CC3CCCNC3C2)nc2ccc(Cl)cc12 (configuration not stated)	> 1000
CN1CCN(c2nc(N)c3cc(Cl)ccc3n2)CC1	105
CN1CCN(c2nc(NCc3ccco3)c3ccccc3n2)CC1	603
CN1CCN(c2nc(NCc3cncs3)c3cc(Cl)ccc3n2)CC1	107
CN1CCN(c2nc3ccc(Cl)cc3nc2OCc2ccccc2)CC1	269
CNc1nc(N2CCCC2CN2CCN(C)CC2)nc2ccc(Cl)cc12 (configuration not stated)	> 1000
CNc1nc(N2CCC3(CCN(C)C3)C2)nc2ccc(Cl)cc12 (configuration not stated)	> 1000
CC(C)Nc1nc(N2CCN(C)CC2)nc2ccc(Cl)cc12	759
CN1CCN(c2nc(N)c3ccccc3n2)CC1	2140
CNc1nc(N2CCCN(C)CC2)nc2ccc(Cl)cc12	> 1000
CNc1nc(N2C[C@H]3CNC[C@H]3C2)nc2ccc(Cl)cc12	> 1000
COc1ccc(CNc2nc(N3CCN(C)CC3)nc3ccc(Cl)cc23)cc1	363
CNc1nc(N2CCN(C)CC2)nc2cc(Cl)ccc12	955

Compound	Ki [nM]
Cc1ccc(CNc2nc(N3CCN(C)CC3)nc3ccc(Cl)cc23)o1	135
CNc1nc(N2CCN(C)CC2C)nc2ccc(Cl)cc12 (configuration not stated)	> 1000
CN1CCN(c2nc(NCCO)c3cc(Cl)ccc3n2)CC1	575
CNc1nc(N2CC[C@@H](N)C2)nc2ccc(Cl)cc12	> 1000
CN1CCN(c2nc(NCc3ccc(C#N)cc3)c3cc(Cl)ccc3n2)CC1	129
CNc1nc(N2CCN3CCCC3C2)nc2ccc(Cl)cc12 (configuration not stated)	141
CN1CCN(c2nc(NCc3ccco3)c3cc(F)ccc3n2)CC1	224
CN1CCN(c2nc(NCc3ccccc3)c3ccccc3n2)CC1	1070
CN1CCN(c2nc(O)c3cc(Cl)ccc3n2)CC1	15100
Cc1csc(CNc2nc(N3CCN(C)CC3)nc3ccc(Cl)cc23)c1	38.9
CNc1nc(N2CC(C)N(C)C(C)C2)nc2ccc(Cl)cc12 (configuration not stated)	> 1000
CN1CCN(c2nc(NCc3cc4ccccc4s3)c3cc(Cl)ccc3n2)CC1	269
CN1CCN(c2nc(NCCc3ccccc3)c3ccccc3n2)CC1	1480
CNc1nc(N2CC[C@H](NC)C2)nc2ccc(Cl)cc12	> 1000
CN1CCN(c2nc(N(C)C)c3cc(Cl)ccc3n2)CC1	617
CN1CCN(c2nc(NCc3ccc(F)cc3)c3cc(Cl)ccc3n2)CC1	105
CNc1nc(NCC2CCN(C)C2)nc2ccc(Cl)cc12 (configuration not stated)	> 1000

What follows are compounds tested against Histamine H1 receptor (Homo sapiens, UniProt P35367) (assay: Displacement of [3H]mepyramine from human histamine H1 receptor expressed in NIH3T3 cells).
Type: cell-based

Chain of Histamine H1 receptor (P35367 whole entry): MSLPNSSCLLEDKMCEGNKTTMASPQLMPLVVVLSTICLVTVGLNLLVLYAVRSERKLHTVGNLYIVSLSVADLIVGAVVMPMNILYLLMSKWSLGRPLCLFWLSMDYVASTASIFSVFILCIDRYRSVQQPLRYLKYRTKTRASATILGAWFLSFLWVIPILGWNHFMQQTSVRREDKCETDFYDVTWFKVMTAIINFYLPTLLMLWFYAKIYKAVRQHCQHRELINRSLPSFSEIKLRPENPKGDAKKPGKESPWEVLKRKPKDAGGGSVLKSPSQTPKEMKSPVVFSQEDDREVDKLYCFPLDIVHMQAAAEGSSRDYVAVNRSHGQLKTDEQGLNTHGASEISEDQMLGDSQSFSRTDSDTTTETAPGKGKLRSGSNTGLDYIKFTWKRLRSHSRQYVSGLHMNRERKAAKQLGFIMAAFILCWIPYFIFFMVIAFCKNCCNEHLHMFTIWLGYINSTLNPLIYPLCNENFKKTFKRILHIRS

Ki [nM]	Compound
97.7	CN1CCN(c2nc(NCc3ccoc3)c3cc(Cl)ccc3n2)CC1

Each compound was assayed against T1, Histamine H4 receptor (assay: Inverse agonist activity at human histamine H4 receptor expressed in HEK293T cells by CRE-beta-galactosidase assay).
Type: functional, cell-based, HEK-293T

IC50 [nM]	Compound
145	CN1CCN(c2nc(NCc3ccoc3)c3cc(Cl)ccc3n2)CC1

The compounds below were run against Histamine H4 receptor (Rattus norvegicus, UniProt Q91ZY1) (assay: Binding affinity to rat histamine H4 receptor).
Chain of Histamine H4 receptor (Rattus norvegicus, UniProt Q91ZY1) (Q91ZY1 whole entry): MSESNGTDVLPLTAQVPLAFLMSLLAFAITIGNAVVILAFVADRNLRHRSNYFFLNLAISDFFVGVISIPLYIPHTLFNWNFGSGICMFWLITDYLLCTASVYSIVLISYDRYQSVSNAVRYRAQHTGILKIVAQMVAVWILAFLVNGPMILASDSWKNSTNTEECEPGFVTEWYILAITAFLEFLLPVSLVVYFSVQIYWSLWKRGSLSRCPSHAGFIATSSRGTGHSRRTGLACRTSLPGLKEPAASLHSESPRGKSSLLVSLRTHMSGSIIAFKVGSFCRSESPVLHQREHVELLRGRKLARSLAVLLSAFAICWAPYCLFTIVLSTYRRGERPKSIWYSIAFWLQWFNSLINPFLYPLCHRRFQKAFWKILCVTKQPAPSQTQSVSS

Ki [nM]	Compound
24.5	CN1CCN(c2nc(NCc3ccoc3)c3cc(Cl)ccc3n2)CC1
15.8	CN1CCN(c2nc(NCc3cccs3)c3cc(Cl)ccc3n2)CC1
